Results: patent US6060568A, “Carbene transition metal catalysts” (The Governors of the University of Alberta, priority 1999, dated 2000)

Legend:
[1] = Solution phase ethylene polymerization, semi-batch reactor (SBR)
Procedure: (§1) All the solution polymerization experiments described below were conducted using an Autoclave Engineers Zipperclave reactor (500 mL). All the chemicals (solvent, catalyst and cocatalyst) were fed into the reactor batchwise except ethylene which was fed on demand. No product was removed during the polymerization reaction. As are known to those skilled in the art, all the feed streams were purified prior to feeding into the reactor by contact with various absorption media to remove catalysts killing impurities such as water, oxygen, sulfur and polar materials. All components were stored and manipulated under an atmosphere of purified argon or nitrogen. The reactor uses a programmable logical control (PLC) system with Wonderware 5.1 s, oftware for the process control. Ethylene polymerizations were performed in the reactor equipped with an air driven stirrer and an automatic temperature control system.
The catalyst was dissolved in toluene. The polymerization reaction time is typically 10 minutes. The reaction was terminated by adding 5 mL of methanol to the reactor and the polymer was recovered by evaporation of the solvent. The polymerization activities were calculated based on the ethylene consumption.
Examples 1-18 were conducted on a solution semi-batch reactor (SBR).
SBR Experimental Conditions with MAO Activation
Catalyst Concentration 200 μmol/L
PMAO-IP Al/Zr = 300 (mol/mol)
Reaction Temperature 160° C.
Reactor Pressure 140 psig total
Stirring Speed 2000 rpm
SBR Experirimental Conditions with Trinitylborate Activation
PMAO-IP 1 mmol/L as impurity scavenger
^a SBR standard MAO screening conditions.
^b Insitu alkylation: PMAOIP (Al/M = 20) premixed with catalyst, the
mixture and tritylborate solution were injected into the reactor
^c SBR standard trityl borate screening conditions.
^d Premix catalyst and cocatalyst.
^e Zr(Bz)4 as scavenger at 1.2 mmol/L. […]

[2] = Low temperature and pressure slurry polymerization on catalyst screening unit (CSU); settings: 10 psig
Procedure: Low pressure and temperature slurry polymerization experiments were conducted on a catalyst screening unit (CSU) where polymerization occurs in a cyclohexane reaction media, ethylene is fed to the reactor on demand and is monitored by a mass flow meter. On the CSU, reaction temperatures are monitored and controlled by thermocouples and one RTD. Reactor temperature control is maintained by a HAAKE circulating water bath which has external thermostatic control via the thermocouple at the reactor core. Reactor temperature is maintained by the water from the bath entering the jacket-like coolant chamber surrounding the reactor. Reaction pressures are indicated by mechanical pressure gauges and monitored manually.
The CSU shares the purified ethylene and cyclohexane feeds with the solution semi-batch reactor (SBR). Ultra-High-Purity argon from PRAXAIR which is purified further by 13× and OXICLEAR on a separate gas purification unit is used for reactor system purging and solvent sparging. The polymerization products are quantitatively recovered for mass determination, and polymerization activities are then calculated based upon mass of product, millimoles of catalyst injected and reaction time.
Examples 25-32 were conducted on a catalyst screening unit (CSU).
Catalyst Concentration 50 μmol/L (Zr)
Catalyst Mole Ratio Al/Zr = 500/1
Polymethylaluminoxane (PMAO-IP)
Reaction Temperature Setpoint 35° C.
Reactor Pressure Setpoint 10 psig total
Stirring Speed ~2250 +/- 300 rpm Initially
Catalyst Concentration 50 μmol/L (M)
Catalyst Mole Ratio Al/B/M = 20/1.05/1
Modified Methylaluminoxane (MMAO-

[3] = Solution phase copolymerization of ethylene with 1-octene, semi-batch reactor (SBR); settings: [CPh3 ][B(C6 F5)4 ]; copolymerization with 20 mL of 1-octene; based on polymer weight
Procedure: Polymer molecular weights and molecular weight distributions were measured by GPC (Waters 150-C) at 140° C. in 1,2,4-trichlorobenzene calibrated using polyethylene standards.
as §1
The catalyst was dissolved in toluene. The polymerization reaction time is typically 10 minutes. […] The polymerization activities were calculated based on the ethylene consumption. […]
were calculated based on polymer weight. 20.7 Br/1000 C detected by NMR […]

[4] = Gas phase polymerization, supported catalyst, semi-batch gas phase reactor; settings: 200 psig, 90° C., 60 minutes; for Yield PE: 50-54 mg supported catalyst
Excerpt: The catalyst preparation methods described below employ typical techniques for the syntheses and handling of air-sensitive materials. Standard Schlenk and drybox techniques were used in the preparation of ligands, metal complexes, support substrates and supported catalyst systems. Solvents were purchased as anhydrous materials and further treated to remove oxygen and polar impurities by contact with a combination of activated alumina, molecular sieves and copper oxide on silica/alumina. Where appropriate, elemental compositions of the supported catalysts were measured by Neutron Activation analysis and a reported accuracy of ±1% (weight basis).
The supported catalysts were prepared by initially supporting MAO on a silica support, followed by deposition of the catalyst component.
(§2) All the polymerization experiments described below were conducted using a semi-batch, gas phase polymerization reactor of total internal volume of 2.2 L. Reaction gas mixtures, including ethylene were measured to the reactor on a continuous basis using a calibrated thermal mass flow meter, following passage through purification media as described above. A pre-determined mass of the catalyst sample was added to the reactor under the flow of the inlet gas with no pre-contact of the catalyst with any reagent, such as a catalyst activator. The catalyst was activated in situ (in the polymerization reactor) at the reaction temperature in the presence of the monomer, using a metal alkyl complex which has been previously added to the reactor to remove adventitious impurities. Purified and rigorously anhydrous sodium chloride was used as a catalyst dispersing agent.
The internal reactor temperature is monitored by a thermocouple in the polymerization medium and can be controlled at the required set point to +/-1.0° C. The duration of the polymerization experiment was one hour. Following the completion of the polymerization experiment, the polymer was separated from the sodium chloride and the yield determined. The following table illustrates bench scale gas phase reaction conditions.
Solvent 5-10 mL hexane added with catalyst
Operating Mode Gas Phase
(§3) Aluminum alkyl 25-30 wt. % triisobutyl aluminum
(§4) Reaction Pressure 200 psig
(§5) Reaction Temperature 90° C.
(§6) Reaction Time 60 minutes
Examples 19-22 are examples of the gas phase polymerization. The next table illustrates data concerning the Al/transition metal ratios of the supported catalyst, polymer yield and polymer properties.

[5] = High temperature and pressure slurry polymerization, supported catalyst; settings: slurry in hexane, 200 psig, 90° C., 60 minutes
Procedure: The supported catalyst described in Part B was also used for the slurry polymerization tests.
as §2, with “a semi-batch” for “a semi-batch, gas phase polymerization”, “sample as” for “sample was”, “complex and solvent” for “complex”, “which have” for “which has”, “impurities.” for “impurities. Purified and rigorously anhydrous sodium chloride was used as a catalyst dispersing agent.”
The internal reactor temperature is monitored by a thermocouple in the polymerization medium and can be controlled at the required set point to +/-1.0° C. The duration of the polymerization experiment was one hour. Following the completion of the polymerization experiment, the slurry was transferred from the reactor to a bowl, and the solvent was left to evaporate. The following table illustrates bench scale slurry phase reaction conditions.
Operating Mode Slurry Phase
as §3, §4, §5, §6
Examples 23-24 are high pressure and temperature slurry polymerization examples. The next table illustrates data concerning the Al/transition metal ratios of the supported catalyst; polymer yield and polymer properties.

[6] = SBR standard trityl borate screening: [CPh3 ][B(C6 F5)4 ], 160° C., 140 psig
[7] = SBR standard MAO screening: PMAO-IP, Al/Zr = 300, 160° C., 140 psig
[8] = [CPh3 ][B(C6 F5)4 ], in situ alkylation, PMAO-IP (Al/M = 20) premixed with catalyst, 160° C.
[9] = MMAO-7/[CPh3 ][B(C6 F5)4 ], Al/B/M = 20/1.05/1, 35° C.

[Zr{C(Ph2 P=NSimMe3)2 }(CH2 C6 H5)2 ] [Zr-6D]
Activity [1, 6]: 11.6 gPE/mmol cat*hr
Activity ([1]; [CPh3 ][B(C6 F5)4 ], Zr(Bz)4 as scavenger at 1.2 mmol/L, 160° C.): 14.4 gPE/mmol cat*hr
Activity ([1]; [CPh3 ][B(C6 F5)4 ], premix catalyst and cocatalyst, 160° C.): 42.7 gPE/mmol cat*hr
Activity ([1]; cocatalyst B(C6 F5)3, footnote c standard trityl borate screening conditions, 160° C.): 9.12 gPE/mmol cat*hr
Activity ([2]; PMAO-IP, Al/Zr = 500/1, 35° C.): 13 gPE/mmol cat*hr
Activity [3]: 10.5 gPE/mmol cat*hr

[ZrCl2 {(C(O)(NAd))C(Ph2 P=NSiMe3)2 }] [KB-103]
Activity [1, 7]: 129.0 gPE/mmol cat*hr
Activity [1, 8]: 498.7 gPE/mmol cat*hr
Activity ([2]; PMAO-IP, Al/Zr = 500/1, 35° C.): 0 gPE/mmol cat*hr
Yield per catalyst [4]: 8 gPE/g Catalyst
Yield per metal [4]: 1607 gPE/g Metal
Yield PE [4]: 0.4 g

[ZrCl2 {C(Cy2 =NSiMe3)2 }] [Zr-3C]
Activity [1, 7]: 22.7 gPE/mmol cat*hr
Activity [1, 8]: 70.6 gPE/mmol cat*hr
Activity ([2]; PMAO-IP, Al/Zr = 500/1, 35° C.): 0 gPE/mmol cat*hr

[ZrMe2 {C(Cy2 =NSiMe3)2 }] [Zr-3C-Me2]
Activity [1, 6]: 56.8 gPE/mmol cat*hr
Activity [2, 9]: 29 gPE/mmol cat*hr
Activity [3]: 8.22 gPE/mmol cat*hr

[Cl][Zr+2][Cl].c1cc[cH-]c1.c1cc[cH-]c1 [Cp2 ZrCl2, reference compound]
Activity [1, 7]: 1339.9 gPE/mmol cat*hr
Activity ([2]; PMAO-IP, Al/Zr = 500/1, 35° C.): 2692 gPE/mmol cat*hr

[ZrCl2 {C(Ph2 P=NSiMe3)2 }] [Zr-3D]
Activity [1, 7]: 14.2 gPE/mmol cat*hr
Activity ([2]; PMAO-IP, Al/Zr = 500/1, 35° C.): 1 gPE/mmol cat*hr
Yield per catalyst [5]: 4 gPE/g Catalyst
Yield per metal [5]: 915 gPE/g Metal
Yield PE ([5]; 122-137 mg supported catalyst): 0.6 g
Yield per catalyst [4]: 0 gPE/g Catalyst
Yield per metal [4]: 0 gPE/g Metal
Yield PE [4]: 0 g

[ZnMe{HC(Ph2 P=NSiMe3)2 }] [AK-17]
Activity [1, 6]: 89.78 gPE/mmol cat*hr
Activity [2, 9]: 4 gPE/mmol cat*hr
Yield per catalyst [4]: 0 gPE/g Catalyst
Yield per metal [4]: 0 gPE/g Metal
Yield PE [4]: 0 g
